Experiments:
[1] = tested on: normal NK cells expanded with K562-aAPC; assay: percent inhibition of viability; higher = more inhibition; settings: 72 h, IL-2 2.5 ng/mL
Description: (§1)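 Drug sensitivity and resistance testing on K562-aAPC-expanded normal NK cells: 5 concentrations (10-fold steps over a 10,000-fold range), 72 h at 37 °C, viability by CellTiter-Glo normalised to DMSO and benzethonium chloride controls; DSS from the fitted curve.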

[2] = tested on: normal primary NK cells, pool 1 (3 donors), resting (IL-2 0 ng/mL); assay: drug sensitivity score (DSS) (DSS units); higher = more sensitive; extreme values may be limits of the assay; settings: 72 h
[3] = tested on: DERL-7 (IL-2 2.5 ng/mL); assay: as above; settings: 72 h
[4] = tested on: normal primary NK cells, pool 3 (3 donors) (IL-2 2.5 ng/mL); assay: as above; settings: 72 h
[5] = tested on: KAI3 (IL-2 2.5 ng/mL); assay: as above; settings: 72 h
[6] = tested on: YT (IL-2 2.5 ng/mL); assay: as above; settings: 72 h
[7] = tested on: KHYG-1 (IL-2 2.5 ng/mL); assay: as above; settings: 72 h
[8] = tested on: NK-92 (IL-2 2.5 ng/mL); assay: as above; settings: 72 h
[9] = tested on: SNK-6 (IL-2 2.5 ng/mL); assay: as above; settings: 72 h
[10] = tested on: normal primary NK cells, pool 2 (3 donors) (IL-2 2.5 ng/mL); assay: as above; settings: 72 h
[11] = tested on: NKL (IL-2 2.5 ng/mL); assay: as above; settings: 72 h
[12] = tested on: NK-YS (IL-2 2.5 ng/mL); assay: as above; settings: 72 h
[13] = tested on: IMC-1 (IL-2 20 ng/mL); assay: as above; settings: 72 h
[14] = tested on: normal primary NK cells, pool 1 (3 donors) (IL-2 2.5 ng/mL); assay: as above; settings: 72 h
[15] = tested on: normal primary NK cells, pool 1 (3 donors), resting (IL-2 0 ng/mL); assay: percent inhibition of viability; higher = more inhibition; settings: 72 h
[16] = tested on: DERL-7 (IL-2 2.5 ng/mL); assay: as above; settings: 72 h
[17] = tested on: normal primary NK cells, pool 3 (3 donors) (IL-2 2.5 ng/mL); assay: as above; settings: 72 h
[18] = tested on: KAI3 (IL-2 2.5 ng/mL); assay: as above; settings: 72 h
[19] = tested on: YT (IL-2 2.5 ng/mL); assay: as above; settings: 72 h
[20] = tested on: KHYG-1 (IL-2 2.5 ng/mL); assay: as above; settings: 72 h
[21] = tested on: NK-92 (IL-2 2.5 ng/mL); assay: as above; settings: 72 h
[22] = tested on: SNK-6 (IL-2 2.5 ng/mL); assay: as above; settings: 72 h
[23] = tested on: normal primary NK cells, pool 2 (3 donors) (IL-2 2.5 ng/mL); assay: as above; settings: 72 h
[24] = tested on: NKL (IL-2 2.5 ng/mL); assay: as above; settings: 72 h
[25] = tested on: NK-YS (IL-2 2.5 ng/mL); assay: as above; settings: 72 h
[26] = tested on: IMC-1 (IL-2 20 ng/mL); assay: as above; settings: 72 h
[27] = tested on: normal primary NK cells, pool 1 (3 donors) (IL-2 2.5 ng/mL); assay: as above; settings: 72 h
[28] = tested on: normal NK cells expanded with K562-aAPC; assay: drug sensitivity score (DSS) (DSS units); higher = more sensitive; extreme values may be limits of the assay; settings: 72 h; IL-2 2.5 ng/mL
Description: as §1

Cn1nnc2c(C(N)=O)ncn2c1=O [Temozolomide] (max concentration tested 100000 nM)
percent inhibition of viability [%]
Settings	10 nM	100 nM	1000 nM	10000 nM	100000 nM
[1]	0.11	-2.44	4.25	0.95	10.9
[15]	-13.7	-5.7	-14.4	-9.04	-7.4
[16]	-3.81	2.52	-0.21	4.75	-1.49
[17]	-14.7	-11.8	-7.32	6.58	17.2
[18]	-11.8	-10.3	-9.47	-11.7	12.9
[19]	-4.31	-3.78	-0.54	-3.29	0.79
[20]	-3.41	-4.13	0.86	0.71	8.74
[21]	-7.14	-7.33	-5.28	7.55	32.4
[22]	-0.07	8.23	35.2	72.8	88.5
[23]	-14.2	-9.61	-8.15	11.5	10
[24]	-9.55	-19.8	-10.2	4.85	65.2
[25]	-2.59	-6.14	2.38	3.13	22.3
[26]	1.34	-6.01	5.36	17.9	74.4
[27]	-7.39	2.46	-6.83	-0.09	5.41

Settings	drug sensitivity score
[2]	0
[3]	0
[4]	1.03
[5]	0.01
[6]	0
[7]	0
[8]	2.63
[9]	18
[10]	0.32
[11]	4.31
[12]	1.21
[13]	6.93
[14]	0
[28]	0.02

Cc1ccc(C(=O)N(CCCN)[C@@H](c2oc3cc(Cl)ccc3c(=O)c2Cc2ccccc2)C(C)C)cc1 (max concentration tested 100 nM)
percent inhibition of viability [%]
Settings	0.01 nM	0.1 nM	1 nM	10 nM	100 nM
[1]	0.7	-0.13	0.62	47.5	60.9
[15]	-14	-28.1	6.55	-12.4	0.78
[16]	-6.36	-10.3	-3.04	12.1	100
[17]	-4.72	-7.26	16.7	13.5	15.5
[18]	-6.39	-3.85	-7.56	25.9	57.9
[19]	-0.9	-3.95	-3.98	6.11	67.4
[20]	2.63	-2.09	3.33	98.1	108
[21]	-6.69	-0.53	4.14	12.2	92.1
[22]	-16.1	-20.8	5.75	78	91.8
[23]	-6.06	-2.94	7.66	13.1	9.78
[24]	7.05	-6.08	0.2	79.2	94.4
[25]	-1.37	-2.68	5	71.1	80.5
[26]	-7.61	-1.73	0.06	99.8	101
[27]	-6.46	-14.6	7.89	0.13	9.64

Settings	drug sensitivity score
[2]	0
[3]	7.54
[4]	3.16
[5]	6.54
[6]	4.68
[7]	18.2
[8]	7.14
[9]	15
[10]	1.26
[11]	14.5
[12]	13.7
[13]	17.9
[14]	0
[28]	8.92
